Assay results as given in ChEMBL document CHEMBL1201862, “PubChem BioAssay data set” (2004).
Calls of active or inactive are those of the source.

Legend:
[1] = target: T1, Ubiquitin-conjugating enzyme E2 N (Homo sapiens, UniProt P61088); type: functional
T1 sequence (P61088 whole entry): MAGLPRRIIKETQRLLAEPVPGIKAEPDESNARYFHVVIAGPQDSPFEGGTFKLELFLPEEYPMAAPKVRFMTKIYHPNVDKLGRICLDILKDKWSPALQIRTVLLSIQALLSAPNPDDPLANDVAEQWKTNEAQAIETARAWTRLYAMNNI

Streptococcus = test: Group A Streptococcus viability loss, dose response, counter-screen for streptokinase expression inhibitor project, luminescence, BacTiterGlo (AID 1915); type: functional, organism-based;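 also: potency for reduction of bacterial viability or growth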
[2] = NIH-3T3 fibroblast cytotoxicity, dose response, cytotoxicity control, cell-based, fluorescence, Alamar Blue, secondary assay (AID 2327); type: functional;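 also: NIH-3T3 mouse fibroblasts cultured with fluconazole at 8 µg/mL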
Prothrombin = Prothrombin (Bos taurus, UniProt P00735); test: thrombin inhibition, dose response, biochemical, fluorescence polarization, uHTS hits (AID 602369); type: functional
[3] = target: T2, Small ubiquitin-related modifier 1 (Homo sapiens, UniProt P63165); test: inhibitors of SUMO1 peptide binding, dose response, biochemical, fluorescence polarization, uHTS hits (AID 624382); type: functional; conditions: read-out: IC50_Mean
[4] = target: T3, Rac GTPase-activating protein 1 (Homo sapiens, UniProt Q9H0H5); test: MgcRacGAP GTPase-activating activity inhibitors, confirmation, biochemical, ADP Hunter fluorescence, primary and confirmatory (AID 624330); type: functional
T3 sequence (Q9H0H5 whole entry): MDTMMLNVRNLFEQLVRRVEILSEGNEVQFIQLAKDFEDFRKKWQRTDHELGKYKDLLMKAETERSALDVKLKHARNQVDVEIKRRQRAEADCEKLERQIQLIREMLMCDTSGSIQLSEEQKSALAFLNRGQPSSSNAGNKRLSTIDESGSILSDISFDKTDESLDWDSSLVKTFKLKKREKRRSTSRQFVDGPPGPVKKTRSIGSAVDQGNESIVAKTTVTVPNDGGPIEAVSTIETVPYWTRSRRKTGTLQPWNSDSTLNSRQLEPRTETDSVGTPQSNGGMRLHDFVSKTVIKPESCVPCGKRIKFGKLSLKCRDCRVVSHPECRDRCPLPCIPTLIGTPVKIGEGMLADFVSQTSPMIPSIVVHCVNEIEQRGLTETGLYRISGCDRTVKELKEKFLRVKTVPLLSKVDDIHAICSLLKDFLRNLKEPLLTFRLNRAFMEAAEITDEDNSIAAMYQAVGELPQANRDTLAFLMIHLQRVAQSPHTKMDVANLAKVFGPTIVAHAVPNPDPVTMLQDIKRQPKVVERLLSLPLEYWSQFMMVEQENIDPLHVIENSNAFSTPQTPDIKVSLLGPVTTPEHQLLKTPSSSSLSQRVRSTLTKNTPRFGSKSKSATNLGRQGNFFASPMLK

[5] = inhibitors of firefly luciferase expression or activity, dose response, H4 neuroglioma cells, luminescence (AID 1990); type: functional, cell-based
[6] = system: Streptococcus sp. 'group A'; test: growth inhibition of control SK(-) GAS strain, dose response, counter-screen for streptokinase expression inhibitor project, luminescence, kanamycin, BacTiterGlo, confirmation (AID 1900); type: functional, organism-based
[7] = target: 26S proteasome non-ATPase regulatory subunit 14 (Homo sapiens, UniProt O00487); test: inhibition of proteasome subunit RPN11 – biochemical, fluorescence polarization, uHTS hits, confirmation (AID 602368); type: functional
Bcl-2-related protein A1 = target: T4, Bcl-2-related protein A1 (Mus musculus, UniProt Q07440); type: functional;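 also: confirmatory dose–response counterscreen on Bfl-1, used to check hits from a UBC13 polyubiquitin inhibitor campaign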
T4 sequence (Q07440 whole entry): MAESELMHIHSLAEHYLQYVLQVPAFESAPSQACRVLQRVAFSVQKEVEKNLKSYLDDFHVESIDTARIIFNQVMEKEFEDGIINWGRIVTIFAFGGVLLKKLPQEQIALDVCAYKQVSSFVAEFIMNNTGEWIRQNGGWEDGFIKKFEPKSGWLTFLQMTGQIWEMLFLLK

INS1 = test: beta cell apoptosis inhibitors, cytokine rescue, dose response, luminescence, retest (AID 449756); type: functional, cell-based; conditions: Rattus norvegicus;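 also: cell death triggered by IL-1 beta plus TNF-alpha plus IFN-gamma mixture; protective hits raise ATP signal compared with cytokine alone wells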
[8] = target: T5, DNA repair protein RAD52 homolog (Homo sapiens, UniProt P43351); type: functional, biochemical
T5 sequence (P43351 whole entry): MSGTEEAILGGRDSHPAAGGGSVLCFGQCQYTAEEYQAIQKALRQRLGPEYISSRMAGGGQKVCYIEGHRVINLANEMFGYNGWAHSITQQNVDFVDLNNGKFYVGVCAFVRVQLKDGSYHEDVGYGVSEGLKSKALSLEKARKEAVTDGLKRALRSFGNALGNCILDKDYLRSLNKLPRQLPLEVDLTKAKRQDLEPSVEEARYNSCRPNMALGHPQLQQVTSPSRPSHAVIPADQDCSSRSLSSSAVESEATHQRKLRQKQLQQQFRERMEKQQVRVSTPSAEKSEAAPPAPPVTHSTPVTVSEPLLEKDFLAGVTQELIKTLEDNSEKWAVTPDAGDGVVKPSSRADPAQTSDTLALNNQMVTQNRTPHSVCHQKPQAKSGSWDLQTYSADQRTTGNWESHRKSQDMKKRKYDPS

[9] = inhibitors of SNCA 5'UTR-driven reporter translation, confirmation, H4 neuroglioma cells, luminescence (AID 1988); type: functional, cell-based
[10] = target: T2, Small ubiquitin-related modifier 1; test: inhibitors of SUMO1 partner interactions, dose response, biochemical, FRET (AID 624383); type: functional; conditions: read-out: IC50_Mean
[11] = microbe, parasite or virus in culture; type: functional; conditions: Mycobacterium tuberculosis
[12] = HeLa cell cytotoxicity, dose response, cytotoxicity control for MgcRacGAP inhibitor project (AID 624300); type: functional

T2 sequence (P63165 whole entry): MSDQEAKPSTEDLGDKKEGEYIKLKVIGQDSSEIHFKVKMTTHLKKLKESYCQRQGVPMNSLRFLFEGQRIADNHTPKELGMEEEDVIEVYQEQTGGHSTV
26S proteasome non-ATPase regulatory subunit 14, sequence (O00487 whole entry): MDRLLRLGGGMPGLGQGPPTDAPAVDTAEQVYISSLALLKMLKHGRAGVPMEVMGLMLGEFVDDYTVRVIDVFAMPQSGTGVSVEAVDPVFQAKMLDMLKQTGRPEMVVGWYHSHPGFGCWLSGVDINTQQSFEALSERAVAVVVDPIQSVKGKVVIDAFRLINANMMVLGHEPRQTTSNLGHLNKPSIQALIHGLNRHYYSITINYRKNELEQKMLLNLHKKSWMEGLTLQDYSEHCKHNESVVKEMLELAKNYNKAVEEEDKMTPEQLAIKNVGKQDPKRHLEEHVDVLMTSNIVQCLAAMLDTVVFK

N=C(N)N/N=C/c1ccc(N(c2ccccc2)c2ccccc2)cc1
active: IC50 [1] 1.11 µM | EC50 (Streptococcus) 3.39 µM | IC50 (Prothrombin) 41.8 µM | IC50 [4] 60.7 µM | EC50 [5] 8.89 µM | EC50 [6] 2.39 µM | IC50 [7] 18 µM | IC50 (Bcl-2-related protein A1) 3.85 µM | AC50 (INS1) 7.12 µM | AC50 [8] 10.8 µM | EC50 [9] 10.4 µM | IC50 [10] 8.67 µM | CC50 [11] 6.42 µM | CC50 [12] 17.1 µM
inactive: IC50 [3] > 66.6 µM
inconclusive: EC50 [2] 18.5 µM
